Test results published in patent US9321772B2, “Substituted pyrazolo[3,4-D]pyrimidines and uses thereof” (The Regents of the University of California, priority 2011, dated 2016).
Entries after “also recorded” stand apart in the source; their conditions may differ.

Key:
Ret kinase domain = target: T1, Ret kinase domain (Homo sapiens, UniProt P07949); experiment: In vitro kinase assay, Ret; type: biochemical
T1 construct: determined against a purified form of the Ret kinase domain
T1 sequence (P07949 724-1016 limits assumed): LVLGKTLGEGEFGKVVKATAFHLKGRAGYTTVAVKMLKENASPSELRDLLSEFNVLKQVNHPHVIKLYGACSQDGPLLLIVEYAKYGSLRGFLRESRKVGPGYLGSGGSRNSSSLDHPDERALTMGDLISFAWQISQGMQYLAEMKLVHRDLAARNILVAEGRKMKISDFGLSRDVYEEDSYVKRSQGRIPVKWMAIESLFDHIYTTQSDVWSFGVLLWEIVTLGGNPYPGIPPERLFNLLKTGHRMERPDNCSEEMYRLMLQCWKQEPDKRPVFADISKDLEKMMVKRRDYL
Method: FIG. 1D. […] Half maximal inhibitory concentrations (IC50) were determined against a purified form of the Ret kinase domain.
(§1) Using in vitro kinase assays we tested AD57, AD36, and AD58 at 1 μM for activity against approximately one-half of the human kinome (FIG. 1E): 165 Ser/Thr kinases, 91 Tyr kinases, and 10 PI kinases were assayed, totaling 266 kinases (244 distinct kinases plus 22 mutant isoforms; see FIG. 6A-6C, FIG. 7A-7F, and FIG. 8 for measured inhibition values).
At least three major pathways are required for dRet^MEN2B-mediated transformation: Ras, Src, and glucose metabolism/PI3K (FIG. 3A; Ref (Read, R. D. et al., Genetics, 2005. 171(3): p. 1057-81)). We utilized in vitro kinase assays to assess compound activity against relevant kinases from each of these pathways, specifically Ret, B-Raf, Src, Tor, and S6K (FIG. 3B).

[1] = tested on: MEN2A (TT) thyroid cancer cells; experiment: Immunoblot analysis of drug-treated TT cells; type: cell-based, human; settings: for phospho-Ret and downstream biomarkers: 1 hour of treatment; for cell death (protein markers of apoptosis): 3 days, 2 μM
Method: (§2) FIG. 19. […] MEN2A (TT) and MEN2B (MZ) thyroid cancer cells were treated with the indicated drugs for 3 days at a final concentration of 2 μM. Cell lystates were immunoblotted for protein markers of apoptosis. Vandetanib (vand.) was included for comparison.
(§3) FIG. 20A-20B. […] FIG. 20A. MEN2B (MZ) and FIG. 20B. MEN2A (TT) thyroid cancer cells were treated with the indicated concentrations of drug. Following 1 hour of treatment, cells were harvested and lysates prepared for immunoblotting to detect the indicated proteins. VD=vandetanib; SF=sorafenib.

[2] = tested on: 765>dRet^MEN2B wings (Ras/Erk pathway activity); experiment: Adult wing vein pattern assay (765>dRetMEN2B); type: in vivo, Drosophila; settings: drug fed flies
From the text: The adult Drosophila wing consists of a stereotypical pattern of […] and two cross-veins; increased Ras/Erk pathway activity leads to ectopic veins (e.g., Refs. (Sawamoto, K. et al., Dev Biol, 1996. 178(1): p. 13-22; Guichard, A. et al., Development, 1999. 126(12): p. 2663-76)). Expression of oncogenic dRet throughout the developing wing (765>dRet^MEN2B) led to disruption of the overall adult wing pattern including ectopic wing veins (FIG. 3D). Reducing gene dosage of the erk ortholog rolled (765>dRet^MEN2B erk−/+) suppressed these phenotypes (FIG. 3D), confirming that wing vein formation is dependent on Ras/Erk activity.

[3] = tested on: MEN2B (MZ) thyroid cancer cells; experiment: Immunoblot analysis of drug-treated MZ cells; type: cell-based, human; settings: for phospho-Ret and downstream biomarkers: 1 hour of treatment; for cell death (protein markers of apoptosis): 3 days, 2 μM
Method: as §2, §3

[4] = target: T2, RET fusion protein CCDC6-RET (Homo sapiens, UniProt P07949); experiment: RET fusion dephosphorylation in TPC1 whole cell lysates; type: cell-based
T2 construct: endogenous in cells; host or cells: TPC1 thyroid cancer cells; the other entry of the earlier key: CCDC6 (Q16204, Coiled-coil domain-containing protein 6)
T2 sequence (P07949 with tags, fused parts or gaps): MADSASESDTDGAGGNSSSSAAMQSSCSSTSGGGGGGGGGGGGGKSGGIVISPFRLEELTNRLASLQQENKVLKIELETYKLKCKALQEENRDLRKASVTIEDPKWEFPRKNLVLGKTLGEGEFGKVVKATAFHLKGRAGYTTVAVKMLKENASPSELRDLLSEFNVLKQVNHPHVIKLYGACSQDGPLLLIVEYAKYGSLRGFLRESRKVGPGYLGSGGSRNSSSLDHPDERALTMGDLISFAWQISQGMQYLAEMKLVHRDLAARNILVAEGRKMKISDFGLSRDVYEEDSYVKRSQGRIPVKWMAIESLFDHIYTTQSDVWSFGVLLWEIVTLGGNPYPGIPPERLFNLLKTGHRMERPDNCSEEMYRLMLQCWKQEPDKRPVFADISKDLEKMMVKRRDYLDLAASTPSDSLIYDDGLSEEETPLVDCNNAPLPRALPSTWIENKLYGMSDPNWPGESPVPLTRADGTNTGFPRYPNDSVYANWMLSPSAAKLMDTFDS
Method: FIG. 24. Whole cell lysates of TPC1 cells were extracted after treatment with AD80 at indicated concentrations and given time points. TPC1 cells were grown in 6 cm dishes at 70-80% confluence in growth media supplemented with 10% FBS. AD80 treatment leads to dephosphorylation of the RET fusion protein at low nanomolar concentrations <10 nM. The inhibition of RET results in dephosphorylation of downstream signaling (PI3K, MAPK).

[5] = tested on: MZ-CRC-1 (MEN2B) cancer cell line; experiment: MZ-CRC-1 cell viability (MTT assay); type: cell-based, human
Method: MEN2B (MZ) thyroid cancer cells were treated with the indicated concentrations of each inhibitor (7 days) and cell viability was quantitated by MTT assay.

TPC1 cells = experiment: AnnexinV/PI flow cytometry apoptosis assay in TPC1 cells; type: cell-based, human
Method: FIG. 25. TPC1 cells were grown in 6 well dishes at 70-80% confluence in growth media supplemented with 10% FBS. TPC1 cells were treated with either AD80, the MEK inhibitor PD325901 or a combination of both inhibitors at indicated concentrations for 72 h. Induction of apoptosis was measured using flow cytometry based counting of AnnexinV/PI positive cells.

EGFR (T790M) = EGFR (T790M) (Homo sapiens, UniProt P00533, T790M); experiment: In vitro kinase assay, EGFR gatekeeper mutant; type: biochemical; settings: 1 μM
EGFR (T790M), sequence (P00533 25-1210 T790M): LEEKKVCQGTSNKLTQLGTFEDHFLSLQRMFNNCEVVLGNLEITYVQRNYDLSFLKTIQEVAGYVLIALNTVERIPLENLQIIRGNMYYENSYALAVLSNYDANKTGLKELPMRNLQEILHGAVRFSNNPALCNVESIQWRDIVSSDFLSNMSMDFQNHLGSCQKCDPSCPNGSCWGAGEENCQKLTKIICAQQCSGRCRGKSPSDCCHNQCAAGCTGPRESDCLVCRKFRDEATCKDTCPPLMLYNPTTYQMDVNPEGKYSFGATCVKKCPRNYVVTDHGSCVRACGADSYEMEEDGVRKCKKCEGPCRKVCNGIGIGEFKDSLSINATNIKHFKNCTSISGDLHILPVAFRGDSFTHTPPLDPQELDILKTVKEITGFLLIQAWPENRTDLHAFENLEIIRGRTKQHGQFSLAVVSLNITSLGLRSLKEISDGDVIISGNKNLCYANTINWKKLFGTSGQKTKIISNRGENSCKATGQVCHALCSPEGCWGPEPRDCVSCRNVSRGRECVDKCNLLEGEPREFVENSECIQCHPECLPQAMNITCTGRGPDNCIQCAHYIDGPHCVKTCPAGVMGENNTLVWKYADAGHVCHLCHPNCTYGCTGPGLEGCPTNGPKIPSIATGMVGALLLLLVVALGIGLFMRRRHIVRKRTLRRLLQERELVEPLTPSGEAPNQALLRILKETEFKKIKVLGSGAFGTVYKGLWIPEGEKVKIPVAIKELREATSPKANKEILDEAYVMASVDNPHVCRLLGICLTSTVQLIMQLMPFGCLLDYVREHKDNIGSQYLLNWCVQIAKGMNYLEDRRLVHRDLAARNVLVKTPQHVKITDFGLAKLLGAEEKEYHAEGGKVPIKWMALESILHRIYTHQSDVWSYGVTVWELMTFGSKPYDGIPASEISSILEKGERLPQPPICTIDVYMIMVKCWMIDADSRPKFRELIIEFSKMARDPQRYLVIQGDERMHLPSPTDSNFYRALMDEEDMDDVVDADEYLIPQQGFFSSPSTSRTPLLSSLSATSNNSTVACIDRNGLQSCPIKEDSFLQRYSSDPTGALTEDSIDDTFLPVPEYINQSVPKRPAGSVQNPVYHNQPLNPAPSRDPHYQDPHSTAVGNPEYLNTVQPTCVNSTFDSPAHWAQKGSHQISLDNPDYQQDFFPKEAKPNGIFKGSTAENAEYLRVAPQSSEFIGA
Method: FIG. 10F. Selectivity profiles for a subset of kinases. The gatekeeper mutant alleles of RET, ABL1, and EGFR are V804L, T315I and T790M, respectively.
as §1

SMILES	Ret inhibition, in words (Ret kinase domain; in vitro kinase profile, 1 μM)	phospho-Ret and downstream biomarkers [1]	cell death (protein markers of apoptosis) [1]	ectopic wing vein / wing pattern phenotype [2]	phospho-Ret and downstream biomarkers [3]	cell death (protein markers of apoptosis) [3]	concentration leading to dephosphorylation of the RET fusion protein [4] [nM]	inhibition of MZ-CRC-1 cell viability / proliferation, in words [5]	induction of apoptosis (AnnexinV/PI positive cells) (TPC1 cells; combination with MEK inhibitor PD325901, 72 h)	induction of apoptosis (AnnexinV/PI positive cells) (TPC1 cells; single agent, 72 h)	potency for Ret in vitro (Ret kinase domain; purified Ret kinase domain)	IC50, fold more potent than Sorafenib ([5]; MZ-CRC-1 cell viability)	inhibition of EGFR (T790M) versus wild type (EGFR (T790M))
CC(C)n1nc(-c2ccc(NC(=O)Nc3cc(C(F)(F)F)ccc3F)cc2)c2c(N)ncnc21 [AD80]	inhibited	potent downregulation of phospho-Ret; also recorded: potent inhibitors	induce cell death	suppressed; also recorded: potently rescued	potent downregulation of phospho-Ret; also recorded: potent inhibitors	induce cell death	< 10	inhibited proliferation	robust induction of apoptosis	does not lead to induction of apoptosis	–	–	–
CC(C)n1nc(-c2ccc(NC(=O)Nc3cccc(C(F)(F)F)c3)cc2)c2c(N)ncnc21 [AD57]	–	potent inhibitors	induce cell death	suppressed	potent inhibitors	induce cell death	–	most potent inhibition	–	–	near equal potency	approximately 150 fold	retained or improved on inhibition
